In patent US20190365754A1, “METHOD OF ELIMINATING STEM CELLS” (Yissum Research Development Company Of The Hebrew …, priority 2014, published 2019):

Tests used:
[1] = test system: beta catenin, p53, DNA damage response; assay: Stabilization of beta catenin and p53 and DNA damage response by CKI inhibitors
β-catenin, p53, c-Myc = assay: Western blot of bone marrow from inhibitor-treated CML carrying mice; format: in vivo, mouse; conditions: daily i.p. 60 mg/Kg; FIG. 6B
Procedure: (§1) The PF670462 was dissolved in 20% 2-hydroxypropyl β-cyclodextrin (vehicle) and administered by daily I.P. of 60 mg/Kg starting 7 hour after disease transfer. The control mice were treated with the vehicle only.
Whole cell lysate were extracted in the presence of protease and phosphatase inhibitors from the bone marrow of CML carrying mice treated with either vehicle or PF670462.
Protein extracts, separated by […] and transferred onto nitrocellulose membranes, were probed with antibodies against beta-catenin, c-Myc, p53 and HSP90. Proteins of interest were detected with HRP-conjugated Donkey/Rabbit anti-mouse IgG antibody (1:5000. GE Healthcare, Uppsala, Sweden) and visualized with the Pierce ECL Western blotting substrate (Thermo Scientific, Rockford, Ill.), according to the provided protocol.

Wnt and p53 pathway = assay: Quantitative RT-PCR of p53 and Wnt targets in inhibitor-treated bone marrow cells; format: cell-based, mouse; conditions: bone marrow cells treated in vitro; FIG. 5B
Procedure: (§2) Freshly isolated bone marrow from CML carrying mice was mixed with normal mice bone marrow in a 1:1 ratio and grown in RPMI supplemented with 15% FCS L-Glutamine, Pen/Strep, Hepes, Sodium Pyruvate, non-essential amino acids (Beit Haemek). PF670462 inhibitor was dissolved in DMSO and added to the tissue culture medium at the indicated concentrations and 0.1% DMSO. As for control, the cells were treated with vehicle only. After 36-48 h, cells were harvested and counted manually using a camera and standard inverted light microscope. Dead cells were excluded using Trypan Blue (sigma). The number of normal and BCR-ABL expressing cells was later extrapolated according to FACS analysis of % GFP^+/7AAD^− expressing cells. AnnexinV-PE (MBL), 7AAD (Tonbo) staining was evaluated by FACS according to manufacturer's recommendation.
Total RNA from cells was extracted using DirectZol RNA miniprep (Zymed). cDNA was generated using a poly(dT) oligonucleotides (IDT) and MMLV—Reverse Transcriptase (Invitrogen) and amplified on a 7900HT Real Time PCR System (Applied Biosystems) using Platinum® SYBR® Green (Invitrogen) according to the manufacturer's instructions. At least triplicate reactions were performed for each gene. Melting curve analysis was performed after each run to control for the nonspecific PCR products and primer dimers. […]

normal BM cells = assay: In vitro inhibitor test, normal cell number in 1:1 mixed CML/normal bone marrow culture; format: cell-based, mouse; conditions: increasing concentration of inhibitor
Procedure: as §2

[2] = test system: BCR-ABL expressing (GFP+) leukemic cells; assay: In vitro inhibitor test, leukemic cell number in 1:1 mixed CML/normal bone marrow culture; format: cell-based; conditions: increasing concentration of inhibitor
Procedure: as §2

leukemic cells = assay: 7AAD-/Annexin+ apoptosis assay, leukemic cells; format: cell-based, mouse; conditions: FIG. 5D
Procedure: as §2

[3] = test system: leukemia initiating cells (LIC); assay: BCR-ABL CML blast crisis mouse model, in vivo treatment
Procedure: To generate the BCR-ABL-inducible CML model, BM cells from MxCre^− Ck1α1^fl/fl or MxCre^+ Ck1 α1^fl/fl were extracted and enriched for cKit expressing cells (EasySep #18757) and incubated overnight in RPMI supplemented with 15% FCS L-Glutamine, Pen/Strep (Beit Haemek) and stem cell factor (SCF), IL-3, IL-6 and TPO (Peprotech). The culture was then infected with p210BCR-ABL-IRES-GFP retrovirus construct containing supernatant medium for 4 hours and returned to medium for additional 24 h. The culture was then injected I.V. into sub-lethally irradiated (500 rad) mice. Upon detectable steady increase of GFP expressing cells in the mice peripheral blood (by FACS) and rise in leukocyte numbers and immature cells (detected by Wright-Giemsa stained blood films) the mice were sacrificed and their bone marrow was transferred to sub-lethally irradiated WT hosts.
Each such transfer was termed disease generation. By the fourth transfer, the hosts were no longer sub-lethally irradiated prior to disease transfer and the time between generations was shorter (usually 10 days). Blast crisis development was easily detectable by the highly abnormal number of blast cells (more than 30% of WBC in PB) and the shortening time between transfers. The experimental procedure is illustrated in FIG. 3. Experiments were performed on late generation diseases in which blasts were easily detectable, no irradiation of hosts was necessary and the generation time was short (up to 14 days). Mice were monitored daily for cachexia, lethargy, and ruff coats, paralysis and moribund mice were sacrificed.
as §1

WT BM cells = assay: 7AAD-/Annexin+ apoptosis assay, WT BM cells; format: cell-based, mouse; conditions: FIG. 5D
Procedure: as §2

[4] = bone marrow of inhibitor-treated mice transplanted to lethally irradiated mice, one month after transplantation

NCCNS(=O)(=O)c1ccc(Cl)c2ccncc12 [CKI7]
induction of a DNA damage response [1]: nor do they induce a DNA damage response | stabilization of beta catenin and p53 [1]: none of these agents stabilize beta catenin and p53

NC(=O)c1ccc(-c2nc(-c3ccc4c(c3)OCCO4)c(-c3ccccn3)[nH]2)cc1 [D4476]
induction of a DNA damage response [1]: nor do they induce a DNA damage response | stabilization of beta catenin and p53 [1]: none of these agents stabilize beta catenin and p53

COc1cc(OC)c(C=C2C(O)=Nc3ccccc32)c(OC)c1 [IC261]
induction of a DNA damage response [1]: nor do they induce a DNA damage response | stabilization of beta catenin and p53 [1]: none of these agents stabilize beta catenin and p53

Nc1nccc(-c2c(-c3ccc(F)cc3)ncn2C2CCCCC2)n1 [PF670462]
β-catenin, p53 and c-Myc protein in bone marrow (Western blot) (β-catenin, p53, c-Myc): stabilization of β-catenin and p53 and induction of the Wnt target gene c-Myc | expression of Wnt and p53 targets (RT-PCR) (Wnt and p53 pathway): upregulation of Wnt and p53 in a dose dependent manner | normal BM cell number (normal BM cells): only slightly reduced | decline in leukemic cell number [2]: much more prominent | apoptotic cell rate (7AAD-/Annexin+) (leukemic cells): increase in apoptotic cell rate under the inhibitor treatment in a dosage dependent manner | bone marrow reconstitution of secondary recipients (LT-HSC integrity) [3, 4]: fully reconstitute | leukemia GFP+ cells in peripheral blood of secondary recipients [3, 4]: no evidence of leukemia GFP+ cells | GFP+ leukemic cells in peripheral blood ([3]; daily i.p. 60 mg/Kg starting 7 hour after disease transfer, FIG. 6C): almost undetectable | bone marrow / vertebrate histology ([3]; daily i.p. 60 mg/Kg, FIG. 6D): normal bone marrow appearance with intact vertebrates | blasts in peripheral blood ([3]; daily i.p. 60 mg/Kg, FIG. 6E): no blast were detected | survival of leukemic mice ([3]; daily i.p. 60 mg/Kg, vehicle group died within 12 days, FIG. 6F): remained alive | apoptotic cell rate (7AAD-/Annexin+) (WT BM cells): not significantly effected
